According to ChEMBL document CHEMBL1156987, “Novel azalides derived from 16-membered macrolides. III. Azalides modified at the C-15 and 4'' positions: Improved antibacterial activities” (Bioorg Med Chem, 2010):
Values after ≈ are worked out from the molar mass of the structure shown.

Tests used:
Type in all cases: functional
[1] = tested on: Staphylococcus aureus; assay: Antibacterial activity against Staphylococcus aureus 209P JC1 after 20 hrs by agar dilution method; conditions: 209P JC1, 20 h
[2] = tested on: Streptococcus pneumoniae; assay: Antibacterial activity against Streptococcus pneumoniae DP1 type 1 after 20 hrs by agar dilution method; conditions: DP1 type1, 20 h
[3] = tested on: Streptococcus pneumoniae; assay: Antibacterial activity against Streptococcus pneumoniae 5 expressing constitutive ermB methylase after 20 hrs by agar dilution method; conditions: Streptococcus pneumoniae, 5, 20 h
[4] = tested on: Streptococcus pneumoniae; assay: Antibacterial activity against Streptococcus pneumoniae 6 expressing constitutive ermB methylase and mefA after 20 hrs by agar dilution method; conditions: Streptococcus pneumoniae, 6, 20 h
[5] = tested on: Streptococcus pneumoniae; assay: Antibacterial activity against Streptococcus pneumoniae 7 expressing constitutive ermB methylase after 20 hrs by agar dilution method; conditions: Streptococcus pneumoniae, 7, 20 h
[6] = tested on: Streptococcus pneumoniae; assay: Antibacterial activity against Streptococcus pneumoniae 8 expressing inducible ermB methylase after 20 hrs by agar dilution method; conditions: Streptococcus pneumoniae, 8, 20 h
[7] = tested on: Streptococcus pneumoniae; assay: Antibacterial activity against Streptococcus pneumoniae 9 expressing inducible ermB methylase after 20 hrs by agar dilution method; conditions: Streptococcus pneumoniae, 9, 20 h
[8] = tested on: Streptococcus pneumoniae; assay: Antibacterial activity against Streptococcus pneumoniae 10 expressing mefA efflux pump after 20 hrs by agar dilution method; conditions: Streptococcus pneumoniae, 10, 20 h
[9] = tested on: Streptococcus pneumoniae; assay: Antibacterial activity against Streptococcus pneumoniae 11 expressing mefA efflux pump after 20 hrs by agar dilution method; conditions: Streptococcus pneumoniae, 11, 20 h
[10] = tested on: Streptococcus pyogenes; assay: Antibacterial activity against Streptococcus pyogenes Cook after 20 hrs by agar dilution method
[11] = tested on: Streptococcus pyogenes; assay: Antibacterial activity against Streptococcus pyogenes 2 expressing constitutive ermB methylase after 20 hrs by agar dilution method; conditions: Streptococcus pyogenes, 2, 20 h
[12] = tested on: Streptococcus pyogenes; assay: Antibacterial activity against Streptococcus pyogenes 3 expressing mefA efflux pump after 20 hrs by agar dilution method; conditions: Streptococcus pyogenes, 3, 20 h
[13] = tested on: Haemophilus influenzae; assay: Antibacterial activity against Haemophilus influenzae 1 after 20 hrs by agar dilution method; conditions: Haemophilus influenzae, 1, 20 h
[14] = tested on: Haemophilus influenzae; assay: Antibacterial activity against Haemophilus influenzae 2 after 20 hrs by agar dilution method; conditions: Haemophilus influenzae, 2, 20 h
[15] = tested on: Haemophilus influenzae; assay: Antibacterial activity against Haemophilus influenzae 3 after 20 hrs by agar dilution method; conditions: Haemophilus influenzae, 3, 20 h

Work on CCCNC(=O)O[C@H]1[C@H](C)O[C@@H](O[C@H]2[C@H](N(C)C)[C@@H](O)[C@H](O[C@H]3[C@@H](CC=O)C[C@@H](C)[C@@H](O)CN(C)CCC[C@H](C/C=C/c4cnc5ccccc5c4)OC(=O)C[C@@H](OC(=O)CC)[C@@H]3OC)O[C@@H]2C)C[C@@]1(C)OC(=O)CC yielded an MIC [1] of 0.5 µg/mL (≈ 0.467 µM), an MIC [2] of 0.03 µg/mL (≈ 0.028 µM) and an MIC [3] of 16 µg/mL (≈ 14.9 µM). The MIC [4] was 32 µg/mL (≈ 29.9 µM), the MIC [5] was 16 µg/mL (≈ 14.9 µM) and the MIC [6] was 0.25 µg/mL (≈ 0.233 µM). For the same molecule, the MIC [7] was 0.25 µg/mL (≈ 0.233 µM), the MIC [8] was 0.06 µg/mL (≈ 0.056 µM) and the MIC [9] was 0.06 µg/mL (≈ 0.056 µM). The MIC [10] was 0.13 µg/mL (≈ 0.121 µM), the MIC [11] was 64 µg/mL (≈ 59.7 µM) and the MIC [12] was 0.25 µg/mL (≈ 0.233 µM). For the same molecule, the MIC [13] was 8 µg/mL (≈ 7.47 µM), the MIC [14] was 32 µg/mL (≈ 29.9 µM) and the MIC [15] was 32 µg/mL (≈ 29.9 µM).

Molecule CCC(=O)O[C@@H]1CC(=O)O[C@@H](C/C=C/c2cnc3ccccc3c2)CCCN(C)C[C@H](O)[C@H](C)C[C@H](CC=O)[C@H](O[C@@H]2O[C@H](C)[C@@H](O[C@H]3C[C@@](C)(OC(=O)CC)[C@@H](OC(=O)NC(C)C)[C@H](C)O3)[C@H](N(C)C)[C@H]2O)[C@H]1OC has an MIC [1] of 0.5 µg/mL (≈ 0.467 µM), an MIC [2] of 0.03 µg/mL (≈ 0.028 µM) and an MIC [3] of 16 µg/mL (≈ 14.9 µM). For the same molecule, the MIC [4] was 16 µg/mL (≈ 14.9 µM), the MIC [5] was 16 µg/mL (≈ 14.9 µM) and the MIC [6] was 0.25 µg/mL (≈ 0.233 µM). It also gave an MIC [7] of 0.25 µg/mL (≈ 0.233 µM), an MIC [8] of 0.06 µg/mL (≈ 0.056 µM) and an MIC [9] of 0.13 µg/mL (≈ 0.121 µM). The MIC [10] was 0.13 µg/mL (≈ 0.121 µM), the MIC [11] was 32 µg/mL (≈ 29.9 µM) and the MIC [12] was 0.25 µg/mL (≈ 0.233 µM). It also gave an MIC [13] of 8 µg/mL (≈ 7.47 µM), an MIC [14] of 32 µg/mL (≈ 29.9 µM) and an MIC [15] of 32 µg/mL (≈ 29.9 µM).

Work on CCC(=O)O[C@@H]1CC(=O)O[C@@H](C/C=C/c2cnc3ccccc3c2)CCCN(C)C[C@H](O)[C@H](C)C[C@H](CC=O)[C@H](O[C@@H]2O[C@H](C)[C@@H](O[C@H]3C[C@@](C)(OC(=O)CC)[C@@H](OC(=O)N(C)C)[C@H](C)O3)[C@H](N(C)C)[C@H]2O)[C@H]1OC yielded an MIC [1] of 0.25 µg/mL (≈ 0.236 µM), an MIC [2] of 0.03 µg/mL (≈ 0.0284 µM) and an MIC [3] of 32 µg/mL (≈ 30.3 µM). It also gave an MIC [4] of over 32 µg/mL, an MIC [5] of over 32 µg/mL and an MIC [6] of 0.25 µg/mL (≈ 0.236 µM). It also gave an MIC [7] of 0.5 µg/mL (≈ 0.473 µM), an MIC [8] of 0.06 µg/mL (≈ 0.0567 µM) and an MIC [9] of 0.06 µg/mL (≈ 0.0567 µM). The MIC [10] was 0.06 µg/mL (≈ 0.0567 µM), the MIC [11] was over 32 µg/mL and the MIC [12] was 0.06 µg/mL (≈ 0.0567 µM). The MIC [13] was 8 µg/mL (≈ 7.57 µM), the MIC [14] was 32 µg/mL (≈ 30.3 µM) and the MIC [15] was 32 µg/mL (≈ 30.3 µM).

In the case of CCC(=O)O[C@@H]1CC(=O)O[C@@H](C/C=C/c2cnc3ccccc3c2)CCCN(C)C[C@H](O)[C@H](C)C[C@H](CC=O)[C@H](O[C@@H]2O[C@H](C)[C@@H](O[C@H]3C[C@@](C)(OC(=O)CC)[C@@H](OC(=O)NCCO)[C@H](C)O3)[C@H](N(C)C)[C@H]2O)[C@H]1OC, the MIC [1] is reported as 0.5 µg/mL (≈ 0.466 µM), the MIC [2] is reported as 0.015 µg/mL (≈ 0.014 µM) and the MIC [3] is reported as over 32 µg/mL. The MIC [4] was 32 µg/mL (≈ 29.8 µM), the MIC [5] was 32 µg/mL (≈ 29.8 µM) and the MIC [6] was 0.25 µg/mL (≈ 0.233 µM). The MIC [7] was 0.5 µg/mL (≈ 0.466 µM), the MIC [8] was 0.015 µg/mL (≈ 0.014 µM) and the MIC [9] was 0.015 µg/mL (≈ 0.014 µM). It also gave an MIC [10] of 0.06 µg/mL (≈ 0.0559 µM), an MIC [11] of over 32 µg/mL and an MIC [12] of 0.13 µg/mL (≈ 0.121 µM). It also gave an MIC [13] of 4 µg/mL (≈ 3.73 µM), an MIC [14] of 16 µg/mL (≈ 14.9 µM) and an MIC [15] of 16 µg/mL (≈ 14.9 µM).

For CCNC(=O)O[C@H]1[C@H](C)O[C@@H](O[C@H]2[C@H](N(C)C)[C@@H](O)[C@H](O[C@H]3[C@@H](CC=O)C[C@@H](C)[C@@H](O)CN(C)CCC[C@H](C/C=C/c4ccnc5ccccc45)OC(=O)C[C@@H](OC(=O)CC)[C@@H]3OC)O[C@@H]2C)C[C@@]1(C)OC(=O)CC, the MIC [1] was 0.5 µg/mL (≈ 0.473 µM), the MIC [2] was 0.015 µg/mL (≈ 0.0142 µM) and the MIC [3] was 64 µg/mL (≈ 60.5 µM). It also gave an MIC [4] of 64 µg/mL (≈ 60.5 µM), an MIC [5] of 64 µg/mL (≈ 60.5 µM) and an MIC [6] of 0.5 µg/mL (≈ 0.473 µM). For the same molecule, the MIC [7] was 0.5 µg/mL (≈ 0.473 µM), the MIC [8] was 0.03 µg/mL (≈ 0.0284 µM) and the MIC [9] was 0.03 µg/mL (≈ 0.0284 µM). The MIC [10] was 0.06 µg/mL (≈ 0.0567 µM), the MIC [11] was over 128 µg/mL and the MIC [12] was 0.25 µg/mL (≈ 0.236 µM). It also gave an MIC [13] of 8 µg/mL (≈ 7.57 µM), an MIC [14] of 32 µg/mL (≈ 30.3 µM) and an MIC [15] of 16 µg/mL (≈ 15.1 µM).

CCNC(=O)O[C@H]1[C@H](C)O[C@@H](O[C@H]2[C@H](N(C)C)[C@@H](O)[C@H](O[C@H]3[C@@H](CC=O)C[C@@H](C)[C@@H](O)CN(C)CCC[C@H](C/C=C/c4cncc5ccccc45)OC(=O)C[C@@H](OC(=O)CC)[C@@H]3OC)O[C@@H]2C)C[C@@]1(C)OC(=O)CC showed an MIC [1] of 0.5 µg/mL (≈ 0.473 µM), an MIC [2] of 0.015 µg/mL (≈ 0.0142 µM) and an MIC [3] of 8 µg/mL (≈ 7.57 µM). The MIC [4] was 8 µg/mL (≈ 7.57 µM), the MIC [5] was 8 µg/mL (≈ 7.57 µM) and the MIC [6] was 0.13 µg/mL (≈ 0.123 µM). The MIC [7] was 0.25 µg/mL (≈ 0.236 µM), the MIC [8] was 0.03 µg/mL (≈ 0.0284 µM) and the MIC [9] was 0.03 µg/mL (≈ 0.0284 µM). The MIC [10] was 0.06 µg/mL (≈ 0.0567 µM), the MIC [11] was 128 µg/mL (≈ 121 µM) and the MIC [12] was 0.25 µg/mL (≈ 0.236 µM). For the same molecule, the MIC [13] was 8 µg/mL (≈ 7.57 µM), the MIC [14] was 16 µg/mL (≈ 15.1 µM) and the MIC [15] was 16 µg/mL (≈ 15.1 µM).
